Key:
FapR [1] = target: T1, FapR (Bacillus subtilis, UniProt O34835); assay: Cell-free transcription-translation (TX-TL) FapR/T7-fapO-sfGFP assay; format: biochemical, B. subtilis; parameters: made in house; host or cells: E. coli BL21(DE3); details: for effector of FapR as judged by cell-free fluorescence / fluorescence response (de-repression of FapR/T7-fapO-sfGFP) compared among thioesters: each thioester at fixed concentration (150 μM)
Excerpt: To this end, the reporter module of the FapR 2H8 biosensor was cloned into pET28a, replacing the typical lacO site controlling the T7 promoter with a single fapO binding site upstream of the sfGFP gene, producing pET28a-T7-fapO-sfGFP (FIG. 5C). Each α-carboxyacyl-CoA was generated enzymatically from the corresponding malonic acid and CoA using the wild-type malonyl-CoA synthetase MatB or the engineered MatB variant, T207G/M306I. Next, the response of the cell-free TX-TL biosensor assay was evaluated by using various concentrations of MatB-generated native effector, mCoA, along with a fixed amount of purified FapR and T7-fapO-sfGFP. […] In addition, the maximum fluorescence signal was ˜15-fold greater than that in the absence of mCoA. Furthermore, to account for potential inhibition of the cell-free biosensor by the MatB reaction mixture, the FapR system was also assayed using a commercial standard of mCoA.
Dose-response analysis of the cell-free TX-TL FapR assay. A premixed solution for cell-free transcription-translation reactions was purchased from New England Biolabs (PURExpress In Vitro Protein Synthesis Kit). To a PCR tube on ice were added (in the order shown): 4 μL Solution A, 3 μL Solution B, 2.5 μM FapR, 250 nM T7-fapO-sfGFP and 0-150 μM of MatB-generated or commercial mCoA in a total volume of 10 μL. In parallel, control reactions in the absence of thioester were assembled by using boiled MatB in the presence of malonic acid. The reaction was incubated for 16 h at 37° C. and then diluted with PBS buffer to give a final total volume of 50 μL.
Cell-Free Characterization of FapR Promiscuity. A commercial kit for cell-free transcription-translation reactions was purchased from New England Biolabs (PURExpress In Vitro Protein Synthesis Kit). To a PCR tube on ice were added (in the order shown): 4 μL Solution A, 3 μL Solution B, 2.5 μM FapR, 250 nM T7-fapO-sfGFP and 150 μM of MatB-generated acyl-CoA or mmSNAC in a total volume of 10 μL (FIG. 9). In parallel, control reactions in the absence of thioester were assembled by using boiled MatB. The reaction was incubated for 16 h at 37° C. and then diluted with PBS buffer to give a final total volume of 50 μL.
Target sequence in this assay (O34835 other isoform, or with tags, fused parts or gaps): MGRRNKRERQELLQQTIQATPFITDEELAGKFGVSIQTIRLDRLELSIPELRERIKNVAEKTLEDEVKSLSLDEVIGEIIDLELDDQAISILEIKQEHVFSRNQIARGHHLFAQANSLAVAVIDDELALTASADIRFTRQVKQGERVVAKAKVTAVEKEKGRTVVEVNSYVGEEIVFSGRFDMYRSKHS

FapR-fapO complex = target: T2, FapR-fapO complex (Bacillus subtilis, UniProt O34835); assay: Electrophoretic mobility shift assay of FapR and fapO; format: binding, B. subtilis; details: titrated against FapR, 40 bp fapO fragment; read-out: concentration at which half of the DNA would be bound
T2 construct: made in house; host or cells: E. coli BL21(DE3)
T2 sequence (O34835 other isoform, or with tags, fused parts or gaps): as above
Procedure: Next, the cell-free FapR biosensor was assayed with each α-carboxyacyl-CoA at a fixed concentration (150 μM). […] This robust activity of pgmCoA is due in part to the increased rigidity of the alkyne side-chain or additional interactions of the alkynyl […] with the FapR ligand-binding site, with the […] side-chain of the nearby Phe99 (FIG. 5A). […] To provide further evidence that FapR is de-repressed by derivatives of mCoA, FapR was tested in vitro for DNA-binding and release by electrophoretic mobility shift assay (EMSA) in the presence of mCoA or mmCoA. Using purified wild-type FapR protein, EMSA was run with a 40 bp DNA fragment containing the fapO binding site (FIG. 7).
Electrophoretic mobility shift assay. The fapO oligonucleotides 5′-[…]-3′ (SEQ ID NO:30) and 5′-[…]-3′ (SEQ ID NO:31) were annealed per standard procedure. Briefly, the two oligos were added to a final concentration of 10 μM each in annealing buffer (19 mM Tris, pH 7.5, 50 mM NaCl, 1 mM EDTA) and heated to 95° C. for 2 minutes before cooling to 25° C. at a rate of −1° C. min^−1. […] Reactions were then analyzed by electrophoresis on a 6% PAGE gel at 220 V. The gel was stained with SYBR Green I and imaged on a Typhoon FLA 7000.

FapR [2] = target: T1, FapR; details: previously reported; cited from earlier work
Target sequence in this assay (O34835 whole entry): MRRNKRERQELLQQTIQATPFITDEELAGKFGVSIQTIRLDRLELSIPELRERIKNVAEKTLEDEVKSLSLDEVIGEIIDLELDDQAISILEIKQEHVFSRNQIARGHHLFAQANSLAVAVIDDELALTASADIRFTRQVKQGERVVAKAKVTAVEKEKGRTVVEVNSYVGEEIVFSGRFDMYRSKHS

SMILES | effector status for FapR (FapR [2]) | effector of FapR as judged by cell-free fluorescence (FapR [1]; FIG. 5D) | fluorescence response (de-repression of FapR/T7-fapO-sfGFP) compared among thioesters (FapR [1]; FIG. 5D) | also measured
CC(C)(COP(=O)(O)OP(=O)(O)OC[C@H]1O[C@@H](n2cnc3c(N)ncnc32)[C@H](O)[C@@H]1OP(=O)(O)O)[C@@H](O)C(=O)NCCC(=O)NCCSC(=O)CC(=O)O [mCoA, malonyl-CoA] | – | – | – | maximum fluorescence signal relative to absence of mCoA (FapR [1]; 0-150 μM mCoA): ~15 fold; concentration range with linear fluorescence output of the cell-free biosensor (FapR [1]; MatB-generated mCoA, 2.5 μM FapR, 250 nM T7-fapO-sfGFP): up to 150 μM; fluorescence output, MatB-generated versus commercial mCoA (FapR [1]; dose-response, FIG. 6): no significant difference; EC50 (FapR-fapO complex): 200 µM
CCCC(=O)SCCNC(=O)CCNC(=O)[C@H](O)C(C)(C)COP(=O)(O)OP(=O)(O)OC[C@H]1O[C@@H](n2cnc3c(N)ncnc32)[C@H](O)[C@@H]1OP(=O)(O)O [butyryl-CoA] | non-effectors | – | – | –
CCC(=O)SCCNC(=O)CCNC(=O)[C@H](O)C(C)(C)COP(=O)(O)OP(=O)(O)OC[C@H]1O[C@@H](n2cnc3c(N)ncnc32)[C@H](O)[C@@H]1OP(=O)(O)O [propionyl-CoA] | non-effectors | de-repression was not observed | – | –
CC(=O)NCCSC(=O)C(C)C(=O)O (stereo not drawn) [mmSNAC] | – | determined to be an effector | – | de-repression activity relative to the corresponding CoA thioester (FapR [1]; 150 μM, fluorescence assay, FIG. 5D): ~50%
CC(=O)SCCNC(=O)CCNC(=O)[C@H](O)C(C)(C)COP(=O)(O)OP(=O)(O)OC[C@H]1O[C@@H](n2cnc3c(N)ncnc32)[C@H](O)[C@@H]1OP(=O)(O)O [acetyl-CoA] | non-effectors | – | – | –
CC(C(=O)O)C(=O)SCCNC(=O)CCNC(=O)[C@H](O)C(C)(C)COP(=O)(O)OP(=O)(O)OC[C@H]1O[C@@H](n2cnc3c(N)ncnc32)[C@H](O)[C@@H]1OP(=O)(O)O (stereo partly drawn) [mmCoA, methylmalonyl-CoA] | – | – | statistically indistinguishable from that with the native ligand, mCoA | –
CCCCC(C(=O)O)C(=O)SCCNC(=O)CCNC(=O)[C@H](O)C(C)(C)COP(=O)(O)OP(=O)(O)OC[C@H]1O[C@@H](n2cnc3c(N)ncnc32)[C@H](O)[C@@H]1OP(=O)(O)O (stereo partly drawn) [bmCoA, butylmalonyl-CoA] | – | identified as effectors | poorest effectors | –
CCC(C(=O)O)C(=O)SCCNC(=O)CCNC(=O)[C@H](O)C(C)(C)COP(=O)(O)OP(=O)(O)OC[C@H]1O[C@@H](n2cnc3c(N)ncnc32)[C@H](O)[C@@H]1OP(=O)(O)O (stereo partly drawn) [emCoA, ethylmalonyl-CoA] | – | identified as effectors | poorest effectors | –
C#CCC(C(=O)O)C(=O)SCCNC(=O)CCNC(=O)[C@H](O)C(C)(C)COP(=O)(O)OP(=O)(O)OC[C@H]1O[C@@H](n2cnc3c(N)ncnc32)[C@H](O)[C@@H]1OP(=O)(O)O (stereo partly drawn) [pgmCoA, propargylmalonyl-CoA] | – | identified as effectors | indistinguishable from that of mCoA and mmCoA | –
CC(C)(COP(=O)(O)OP(=O)(O)OC[C@H]1O[C@@H](n2cnc3c(N)ncnc32)[C@H](O)[C@@H]1OP(=O)(O)O)[C@@H](O)C(=O)NCCC(=O)NCCSC(=O)CCC(=O)O [succinyl-CoA] | non-effectors | – | – | –

Reference: patent US12516388B2, “Biosensors for polyketide extender units and uses thereof” (NORTH CAROLINA STATE UNIVERSITY, priority 2019, dated 2026)
